In publication PMC8745332, “Synthesis, Molecular Docking and Biological Characterization of Pyrazine Linked 2-Aminobenzamides as New Class I Selective Histone Deacetylase (HDAC) Inhibitors with Anti-Leukemic Activity” (International Journal of Molecular Sciences, 2021):
Where two headings read alike, the source gives them in different places.

What was measured:
[1] = system: HDAC4-8; set-up: method as in PMID 33362555, PMID 25874326, PMID 17941625, PMID 27377864; conditions: previously reported, Figure 1; cited from earlier work
[2] = system: HDAC3; conditions: read-out: IC50 (HDAC3); cited from earlier work
[3] = system: HDAC2; conditions: read-out: IC50 (HDAC2); previously reported, Figure 1; cited from earlier work
[4] = system: HDAC1; conditions: read-out: IC50 (HDAC1); previously reported, Figure 1; cited from earlier work
[5] = system: MOLM-13 cells; experiment: Apoptosis in MOLM-13 cells, annexin-V/PI flow cytometry; format: cell-based, human; conditions: Homo sapiens
Method: (§1) We measured the induction of early (increased exposure of phosphatidylserine on the cell surface and therefore positive staining for annexin-V-FITC) and late apoptosis (positivity for annexin-V and accumulation of propidium iodide, PI) by flow cytometry.
(§2) All leukemic cells were kept in RPMI-1640 medium supplemented with 10% FBS and 1%penicillin/streptomycin (Sigma-Aldrich, Taufkirchen, Germany) under standard culture conditions at 37 °C and a 5% CO2 humidified atmosphere. Cells were authenticated as mentioned by us.

[6] = system: HEL cells; experiment: Cytotoxicity/apoptosis in HEL cells expressing JAK2V617F, annexin V-FITC/PI flow cytometry; format: cell-based, human
Method: (B) Cells were stained with annexin V-FITC/PI and analyzed via flow cytometry. […] IC50 values were determined for 19f. Results represent three independent experiments.
This erythroleukemia cell model carries a mutation in Janus kinase-2 (JAK2V617F) and HDACi are considered as therapeutic options to control the transformation of this disease into AML [53].
as §2

[7] = system: MV4-11 cells; experiment: Apoptosis in MV4-11 cells, annexin-V-FITC/PI flow cytometry; format: cell-based, human; conditions: Homo sapiens
Method: as §1, §2

[8] = system: HDAC8; set-up: method as in PMID 33362555, PMID 25874326, PMID 22080169, doi:10.1039/C4MD00350K, PMID 26640968; conditions: previously reported, Figure 1; cited from earlier work

Structure (SMILES)	IC50 [1] [nM]	IC50 [2] [nM]	IC50 [3] [nM]	IC50 [4] [nM]	IC50 ([5]; MOLM-13, 48 h, read-out: IC50 (apoptosis, annexin-V/PI)) [nM]	IC50 ([5]; MOLM-13 cells, 24 h, annexin-V/PI, read-out: IC50 for apoptosis induction) [nM]	apoptosis in HEL cell cultures ([6]; 0.5 µM, 48 h)	IC50 ([6]; Homo sapiens, 0.25 µM to 5 µM, 24 h, read-out: IC50 for toxic effects on HEL cells) [nM]	IC50 ([7]; MV4-11, 48 h, read-out: IC50 (apoptosis, annexin-V/PI)) [nM]	IC50 ([7]; MV4-11 cells, 24 h, annexin-V/PI, read-out: IC50 for apoptosis induction) [nM]	IC50 [8] [nM]
CC(=O)Nc1ccc(C(=O)Nc2cc(-c3cccs3)ccc2N)cc1 [VIII]	> 20000	[…]	56	[…]	–	–	–	–	–	–	–
Nc1ccccc1NC(=O)c1ccc(CNC(=O)OCc2cccnc2)cc1 [MS-275, Entinostat, reference compound]	–	–	[…]	[…]	318	1130	did not cause apoptosis	4440	692	1310	[…]
Nc1ccccc1NC(=O)c1ccc(CNc2nccc(-c3cccnc3)n2)cc1 [Mocetinostat]	> 10000	–	[…]	150	–	–	–	–	–	–	–
